Source: ChEMBL document CHEMBL1139514, “Methyl substitution of 2-aminobicyclo[3.1.0]hexane 2,6-dicarboxylate (LY354740) determines functional activity at metabotropic glutamate receptors: identification of a subtype selective mGlu2 receptor agonist” (J Med Chem, 2005)

Tests used:
[1] = molecular target: T1, Metabotropic glutamate receptor 3 (Homo sapiens, UniProt Q14832); assay: Displacement of [3H]-341495 binding to membranes expressing recombinant human Metabotropic glutamate receptor 3
[2] = molecular target: T2, Metabotropic glutamate receptor 2 (Homo sapiens, UniProt Q14416); assay: Evaluation of the functional effect on cAMP responses in RGT cells expressing human mGlu2 receptor; format: cell-based
[3] = molecular target: T2, Metabotropic glutamate receptor 2; assay: Displacement of [3H]-341495 binding to membranes expressing recombinant human Metabotropic glutamate receptor 2
[4] = molecular target: T1, Metabotropic glutamate receptor 3; assay: Evaluation of the functional effect on cAMP responses in RGT cells expressing human mGlu3 receptor; format: cell-based

T2 sequence (Q14416 whole entry): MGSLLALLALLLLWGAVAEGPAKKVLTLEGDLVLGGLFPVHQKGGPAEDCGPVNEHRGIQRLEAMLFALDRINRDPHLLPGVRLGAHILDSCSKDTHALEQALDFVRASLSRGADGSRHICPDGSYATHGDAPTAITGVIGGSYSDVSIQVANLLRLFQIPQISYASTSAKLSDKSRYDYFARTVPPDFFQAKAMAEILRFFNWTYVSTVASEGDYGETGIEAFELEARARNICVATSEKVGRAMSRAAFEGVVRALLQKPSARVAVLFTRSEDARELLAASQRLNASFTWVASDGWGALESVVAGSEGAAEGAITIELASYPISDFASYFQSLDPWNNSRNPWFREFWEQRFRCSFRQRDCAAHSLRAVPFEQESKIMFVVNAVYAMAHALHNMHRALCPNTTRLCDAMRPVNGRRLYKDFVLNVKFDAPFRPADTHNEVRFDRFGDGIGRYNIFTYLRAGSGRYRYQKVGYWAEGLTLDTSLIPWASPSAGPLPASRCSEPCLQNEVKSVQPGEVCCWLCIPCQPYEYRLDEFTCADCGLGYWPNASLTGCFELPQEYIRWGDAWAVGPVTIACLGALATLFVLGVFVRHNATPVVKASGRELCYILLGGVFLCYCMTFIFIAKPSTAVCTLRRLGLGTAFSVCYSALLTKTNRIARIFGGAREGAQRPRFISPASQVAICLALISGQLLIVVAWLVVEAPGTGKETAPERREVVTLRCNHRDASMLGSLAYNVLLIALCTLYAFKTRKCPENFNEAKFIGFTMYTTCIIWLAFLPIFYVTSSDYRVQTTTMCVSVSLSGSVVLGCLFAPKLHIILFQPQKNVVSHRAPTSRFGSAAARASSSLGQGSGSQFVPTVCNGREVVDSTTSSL
T1 sequence (Q14832 whole entry): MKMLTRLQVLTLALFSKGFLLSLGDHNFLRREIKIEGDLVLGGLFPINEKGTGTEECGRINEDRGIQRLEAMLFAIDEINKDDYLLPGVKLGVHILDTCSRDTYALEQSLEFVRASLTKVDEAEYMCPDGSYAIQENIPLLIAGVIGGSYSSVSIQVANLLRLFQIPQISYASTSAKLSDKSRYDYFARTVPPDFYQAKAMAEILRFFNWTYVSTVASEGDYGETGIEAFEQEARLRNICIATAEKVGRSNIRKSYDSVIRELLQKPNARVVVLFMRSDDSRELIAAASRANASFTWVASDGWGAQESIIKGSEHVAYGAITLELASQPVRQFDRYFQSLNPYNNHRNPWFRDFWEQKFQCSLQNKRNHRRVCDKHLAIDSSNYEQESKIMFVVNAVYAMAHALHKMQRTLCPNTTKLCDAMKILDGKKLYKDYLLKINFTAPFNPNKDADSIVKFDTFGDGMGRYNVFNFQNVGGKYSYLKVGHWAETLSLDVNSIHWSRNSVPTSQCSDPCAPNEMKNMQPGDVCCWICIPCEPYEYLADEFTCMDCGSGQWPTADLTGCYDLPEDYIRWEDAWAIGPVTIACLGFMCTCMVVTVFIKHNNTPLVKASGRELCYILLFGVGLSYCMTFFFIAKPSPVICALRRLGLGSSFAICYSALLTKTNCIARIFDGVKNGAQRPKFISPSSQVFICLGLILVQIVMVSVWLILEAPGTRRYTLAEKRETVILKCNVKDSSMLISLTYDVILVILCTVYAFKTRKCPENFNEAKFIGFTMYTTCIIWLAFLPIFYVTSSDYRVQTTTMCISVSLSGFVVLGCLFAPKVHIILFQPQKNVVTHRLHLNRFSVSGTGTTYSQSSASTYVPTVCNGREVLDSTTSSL

Ki [1] | IC50 [2] | Ki [3] | EC50 [2] | EC50 [4] | IC50 [4] | SMILES
146 nM | 1750 nM |  |  |  |  | C[C@@H]1C[C@H]2[C@H](C(=O)O)[C@H]2[C@]1(N)C(=O)O
> 100000 nM |  | > 100000 nM | > 100000 nM | > 100000 nM |  | C[C@H]1C[C@](N)(C(=O)O)[C@H]2[C@H](C(=O)O)[C@H]21
511 nM |  |  | 45 nM | 34 nM |  | C[C@H]1C[C@@](N)(C(=O)O)[C@@H]2[C@@H](C(=O)O)[C@@H]21
 |  | 74 nM | 10 nM |  |  | N[C@@]1(C(=O)O)CC[C@H]2[C@H](C(=O)O)[C@H]21
570 nM |  | 409 nM | 397 nM |  | 2940 nM | C[C@@H]1C[C@@](N)(C(=O)O)[C@@H]2[C@@H](C(=O)O)[C@@H]21 (stereo in doubt; 13)
302 nM |  | 165 nM | 161 nM |  | 1050 nM | C[C@@H]1C[C@@](N)(C(=O)O)[C@@H]2[C@@H](C(=O)O)[C@@H]21 (stereo in doubt; (+)-13)
